Measured values: patent US5763404A, “Methods for using LHRH antagonists with low histamine release” (priority 1995, dated 1998)
Starred links: 1 amine or outer side, 2 acyl side, 3 side chain; linkers in the order of their positions; H or OH if unused. Non-standard residues stand in square brackets, D forms with d. Residues, ends and D or L forms follow the SMILES beside them. *: point of attachment. dAla(cis-4-NHCOPyz-cHex) = N[C@H](C[C@H]1CC[C@@H](NC(=O)c2cnccn2)CC1)C(=O)O; X1 = O=C(N[C@H]1CC[C@@H](C[C@@H](N[*:1])C(=O)[*:2])CC1)c1ccccn1; X4 = O=C(N[C@H]1CC[C@@H](C[C@@H](N[*:1])C(=O)[*:2])CC1)c1cccnc1; X3 = O=C(N[C@H]1CC[C@H](C[C@@H](N[*:1])C(=O)[*:2])CC1)c1cnccn1; X6 = O=C(N[C@H]1CC[C@H](C[C@@H](N[*:1])C(=O)[*:2])CC1)c1ccccn1; X7 = O=C(N[C@H]1CC[C@H](C[C@@H](N[*:1])C(=O)[*:2])CC1)c1cccnc1; dPhe(4-Cl) = N[C@H](Cc1ccc(Cl)cc1)C(=O)O; d2Nal = N[C@H](Cc1ccc2ccccc2c1)C(=O)O; Lys(iPr) = CC(C)NCCCC[C@H](N)C(=O)O; Orn(iPr) = CC(C)NCCC[C@H](N)C(=O)O; aIle = CC[C@@H](C)[C@H](N)C(=O)O; d3Pal = N[C@H](Cc1cccnc1)C(=O)O; Nicotinoyl = O=C(c1cccnc1)*; Picolinoyl = O=C(c1ccccn1)*

test system: anaesthesized rats; test: wheal test, intradermal injection; type: in vivo, rat; set-up: Wheal (wheal response): unit not given here; conditions: 10 ug peptide intradermally
Method: The antiovulatory activity, AOA, in rats was determined as described by Humphries et al. (12). Antiovulation assays were performed by counting, on estrus, the number of ova shed by 4-day cycling rats after a single sc injection of the LH-RH analogue in corn oil was administered between 12 and 12:30 p.m. on […]. The control rats received 0.3 mL of the vehicle. The wheal test was performed by intradermally injecting 10 ug of peptide in 100 ul of saline into anaesthesized rats, measuring the ideally circular wheal response and calculating the area. The in vitro histamine release test was done as described by Karten et al. (4). A suspension of rat mast cells was added to increasing concentrations of peptide and the mixture was incubated for a few minutes followed by centrifugation to collect the histamine in the supernatant. A PIPES (piperazine-N,N'-bis[2-ethanesulfonic acid]) medium buffered at pH 7.4 containing NaCl 119 mM, KCl 5 mM, PIPES 25 mM, NaOH 40 mM, glucose 5.6 mM, CaCl2 1 mM, and 0.1% bovine serum albumin was used. This was designated as PIPES AC. Peptides were dissolved in double distilled H2 O at a concentration of 2 mg/ml and stored at -20° C. They were thawed just prior to testing, diluted in PIPES AC and prewarmed for five minutes at 37° C. Peptides studied were stable to heating at 56° C. for two hours, and to freezing and thawing.

SMILES | Wheal Area
CC(=O)N[C@H](Cc1ccc2ccccc2c1)C(=O)N[C@H](Cc1ccc(Cl)cc1)C(=O)N[C@H](Cc1cccnc1)C(=O)N[C@@H](CO)C(=O)N[C@@H](CCCCNC(=O)c1cccnc1)C(=O)N[C@H](C[C@H]1CC[C@H](NC(=O)c2cccnc2)CC1)C(=O)N[C@@H](CC(C)C)C(=O)N[C@@H](CCCCNC(C)C)C(=O)N1CCC[C@H]1C(=O)N[C@H](C)C(N)=O [IBR 25647] (Ac-[d2Nal][dPhe(4-Cl)][d3Pal]SK(Nicotinoyl)[X7]L[Lys(iPr)]P[dA]-NH2) | 119.5 ± 3.2 mm^2 /10 μg
CC(=O)N[C@H](Cc1ccc2ccccc2c1)C(=O)N[C@H](Cc1ccc(Cl)cc1)C(=O)N[C@H](Cc1cccnc1)C(=O)N[C@@H](CO)C(=O)N[C@@H](CCCCNC(=O)c1cccnc1)C(=O)N[C@H](C[C@H]1CC[C@@H](NC(=O)c2cccnc2)CC1)C(=O)N[C@@H](CC(C)C)C(=O)N[C@@H](CCCCNC(C)C)C(=O)N1CCC[C@H]1C(=O)N[C@H](C)C(N)=O [IBR 25648] (Ac-[d2Nal][dPhe(4-Cl)][d3Pal]SK(Nicotinoyl)[X4]L[Lys(iPr)]P[dA]-NH2) | 101.8 ± 4.3 mm^2 /10 μg
CC(=O)N[C@H](Cc1ccc2ccccc2c1)C(=O)N[C@H](Cc1ccc(Cl)cc1)C(=O)N[C@H](Cc1cccnc1)C(=O)N[C@@H](CO)C(=O)N[C@@H](CCCCNC(=O)c1ccccn1)C(=O)N[C@H](C[C@H]1CC[C@@H](NC(=O)c2cnccn2)CC1)C(=O)N[C@@H](CC(C)C)C(=O)N[C@@H](CCCCNC(C)C)C(=O)N1CCC[C@H]1C(=O)N[C@H](C)C(N)=O [IBR 25897] (Ac-[d2Nal][dPhe(4-Cl)][d3Pal]SK(Picolinoyl)[dAla(cis-4-NHCOPyz-cHex)]L[Lys(iPr)]P[dA]-NH2) | 122.8 ± 5.7 mm^2 /10 μg
CC(=O)N[C@H](Cc1ccc2ccccc2c1)C(=O)N[C@H](Cc1ccc(Cl)cc1)C(=O)N[C@H](Cc1cccnc1)C(=O)N[C@@H](CO)C(=O)N[C@@H](CCCCNC(=O)c1ccccn1)C(=O)N[C@H](C[C@H]1CC[C@@H](NC(=O)c2cnccn2)CC1)C(=O)N[C@@H](CC(C)C)C(=O)N[C@@H](CCCNC(C)C)C(=O)N1CCC[C@H]1C(=O)N[C@H](C)C(N)=O [IBR 26181] (Ac-[d2Nal][dPhe(4-Cl)][d3Pal]SK(Picolinoyl)[dAla(cis-4-NHCOPyz-cHex)]L[Orn(iPr)]P[dA]-NH2) | 101.6 ± 2.2 mm^2 /10 μg
CC(=O)N[C@H](Cc1ccc2ccccc2c1)C(=O)N[C@H](Cc1ccc(Cl)cc1)C(=O)N[C@H](Cc1cccnc1)C(=O)N[C@@H](CO)C(=O)N[C@@H](CCCCNC(=O)c1ccccn1)C(=O)N[C@H](C[C@H]1CC[C@H](NC(=O)c2ccccn2)CC1)C(=O)N[C@@H](CC(C)C)C(=O)N[C@@H](CCCCNC(C)C)C(=O)N1CCC[C@H]1C(=O)N[C@H](C)C(N)=O [IV-3] (Ac-[d2Nal][dPhe(4-Cl)][d3Pal]SK(Picolinoyl)[X6]L[Lys(iPr)]P[dA]-NH2) | 101.0 ± 3.0 mm^2 /10 μg
CC(=O)N[C@H](Cc1ccc2ccccc2c1)C(=O)N[C@H](Cc1ccc(Cl)cc1)C(=O)N[C@H](Cc1cccnc1)C(=O)N[C@@H](CO)C(=O)N[C@@H](CCCCNC(=O)c1ccccn1)C(=O)N[C@H](C[C@H]1CC[C@@H](NC(=O)c2ccccn2)CC1)C(=O)N[C@@H](CC(C)C)C(=O)N[C@@H](CCCCNC(C)C)C(=O)N1CCC[C@H]1C(=O)N[C@H](C)C(N)=O [IV-4] (Ac-[d2Nal][dPhe(4-Cl)][d3Pal]SK(Picolinoyl)[X1]L[Lys(iPr)]P[dA]-NH2) | 123.0 ± 5.0 mm^2 /10 μg
CC(=O)N[C@H](Cc1ccc2ccccc2c1)C(=O)N[C@H](Cc1ccc(Cl)cc1)C(=O)N[C@H](Cc1cccnc1)C(=O)N[C@@H](CO)C(=O)N[C@@H](CCCCNC(=O)c1ccccn1)C(=O)N[C@H](C[C@H]1CC[C@H](NC(=O)c2cnccn2)CC1)C(=O)N[C@@H](CC(C)C)C(=O)N[C@@H](CCCCNC(C)C)C(=O)N1CCC[C@H]1C(=O)N[C@H](C)C(N)=O [IV-5] (Ac-[d2Nal][dPhe(4-Cl)][d3Pal]SK(Picolinoyl)[X3]L[Lys(iPr)]P[dA]-NH2) | 106.3 ± 4.3 mm^2 /10 μg

same assay, conditions: Table I; 10 ug peptide intradermally

SMILES | Wheal
CC(=O)N[C@H](Cc1ccc2ccccc2c1)C(=O)N[C@H](Cc1ccc(Cl)cc1)C(=O)N[C@H](Cc1cccnc1)C(=O)N[C@@H](CO)C(=O)N[C@@H](Cc1ccc(O)cc1)C(=O)N[C@H](CCCCNC(=O)c1cccnc1)C(=O)N[C@@H](CC(C)C)C(=O)N[C@@H](CCCNC(=N)N)C(=O)N1CCC[C@H]1C(=O)N[C@H](C)C(N)=O [compound 22396] (Ac-[d2Nal][dPhe(4-Cl)][d3Pal]SY[dK](Nicotinoyl)LRP[dA]-NH2) | 85 mm^2 /10
CC(=O)N[C@H](Cc1ccc2ccccc2c1)C(=O)N[C@H](Cc1ccc(Cl)cc1)C(=O)N[C@H](Cc1cccnc1)C(=O)N[C@@H](CO)C(=O)N[C@@H](CCCCNC(=O)c1cccnc1)C(=O)N[C@H](Cc1cccnc1)C(=O)N[C@@H](CC(C)C)C(=O)N[C@@H](CCCNC(=N)N)C(=O)N1CCC[C@H]1C(=O)N[C@H](C)C(N)=O [compound 22495] (Ac-[d2Nal][dPhe(4-Cl)][d3Pal]SK(Nicotinoyl)[d3Pal]LRP[dA]-NH2) | 112 mm^2 /10
CC(=O)N[C@H](Cc1ccc2ccccc2c1)C(=O)N[C@H](Cc1ccc(Cl)cc1)C(=O)N[C@H](Cc1cccnc1)C(=O)N[C@@H](CO)C(=O)N[C@@H](CCCNC(=N)N)C(=O)N[C@H](CCCCNC(=O)c1cccnc1)C(=O)N[C@@H](CC(C)C)C(=O)N[C@@H](CCCNC(=N)N)C(=O)N1CCC[C@H]1C(=O)N[C@H](C)C(N)=O [compound 24199] (Ac-[d2Nal][dPhe(4-Cl)][d3Pal]SR[dK](Nicotinoyl)LRP[dA]-NH2) | 146.8 mm^2 /10
CC(=O)N[C@H](Cc1ccc2ccccc2c1)C(=O)N[C@H](Cc1ccc(Cl)cc1)C(=O)N[C@H](Cc1cccnc1)C(=O)N[C@@H](CO)C(=O)N[C@@H](Cc1ccc(O)cc1)C(=O)N[C@H](CCCCNC(=O)c1cccnc1)C(=O)N[C@@H](CC(C)C)C(=O)N[C@@H](CCCCNC(C)C)C(=O)N1CCC[C@H]1C(=O)N[C@H](C)C(N)=O [compound 24315] (Ac-[d2Nal][dPhe(4-Cl)][d3Pal]SY[dK](Nicotinoyl)L[Lys(iPr)]P[dA]-NH2) | 79.0 ± 9.2 mm^2 /10

same assay, conditions: Table XIV and text, unit not given

SMILES | Wheal (wheal response)
CC[C@@H](C)[C@H](NC(=O)[C@@H](CCCCNC(=O)c1ccccn1)NC(=O)[C@H](CCCCNC(=O)c1ccccn1)NC(=O)[C@H](CO)NC(=O)[C@@H](Cc1cccnc1)NC(=O)[C@@H](Cc1ccc(Cl)cc1)NC(=O)[C@@H](Cc1ccc2ccccc2c1)NC(C)=O)C(=O)N[C@@H](CCCCNC(C)C)C(=O)N1CCC[C@H]1C(=O)N[C@H](C)C(N)=O [IBR 25936] (Ac-[d2Nal][dPhe(4-Cl)][d3Pal]SK(Picolinoyl)[dK](Picolinoyl)[aIle][Lys(iPr)]P[dA]-NH2) | 97.9±2.9
CC[C@@H](C)[C@H](NC(=O)[C@@H](CCCCNC(=O)c1ccccn1)NC(=O)[C@H](CCCCNC(=O)c1ccccn1)NC(=O)[C@H](CO)NC(=O)[C@@H](Cc1cccnc1)NC(=O)[C@@H](Cc1ccc(Cl)cc1)NC(=O)[C@@H](Cc1ccc2ccccc2c1)NC(C)=O)C(=O)N[C@@H](CCCNC(C)C)C(=O)N1CCC[C@H]1C(=O)N[C@H](C)C(N)=O [IBR 26178] (Ac-[d2Nal][dPhe(4-Cl)][d3Pal]SK(Picolinoyl)[dK](Picolinoyl)[aIle][Orn(iPr)]P[dA]-NH2) | 78.6±4.5
